Source: patent US20140235548A1, “COMPOSITIONS AND METHODS FOR JAMM PROTEIN INHIBITION” (Cleave Biosciences, Inc., priority 2011, published 2014)
pIC50: −log10 of the molar value. Read-outs that look alike come from different tables or passages of the source. Where a SMILES comes first, the peptide text is derived from it. The star is where a group is joined. Cbz = O=C(OCc1ccccc1)*

Legend:
Rpn11 [1] = target: T1, Rpn11 (Homo sapiens, UniProt O00487); experiment: Rpn11 fluorescence polarization assay with 26S proteasome and Ub4-peptide-Oregon Green substrate; assay type: biochemical
Excerpt: As seens in FIG. 4A) the Rpn11 substrate consisted of six histidine residues followed by four ubiquitin sequences fallowed by the peptide sequence […]. The Oregon Green fluorophore was attached to the cysteine residue via maleimide chemistry. Following cleavage of the substrate by Rpn11, the product […] coupled to Oregon Green was released. The change in molecular weight of Oregon Green containing protein was detected by fluorescence polarization. The Rpn11 reaction can he inhibited with compound 1. In FIG. 4(B) progress curves for product generation by 26S proteasome (which contains Rpn11). Rpn11 cleaves the substrate immediately after the fourth ubiquitin (Ub). 5 nM Ub-Ub-Ub-Ub-peptide-oregon green substrate was incubated with 0.5 nM purified 26S proteasome for 120 min at room temperature. As labeled peptide is liberated, the fluorescence polarization diminishes. The cleavage reaction can be inhibited by the o-phenanthroline. In FIG. 4(C-E) dose-response curve for inhibition of Rpn11 by compound 1 (C), 3-hydroxy-4H-pyran-4-thione (D) or o-phenanthroline (E) were generated by adding varying doses of compound to the reaction mixture. At 120 minutes, fluorescence polarization was measured. Percent activity was calculated based on the amount of enzyme activity observed in the absence of added test agent.
An 8-point compound 001 dose titration curve was performed, by incubating Rpn11-containing 26S proteasome, Rpn11 substrate and compound (dose range 50 μM to 0.1 μM) and monitoring fluorescence polarization as per BIOEXAMPLE 4. Remaining activity as compared to DMSO control (% activity) was calculated and plotted versus compound 1 concentration and the curve was fit to a four-parameter fit model to obtain an IC50 value.

CSN5 [2] = target: T2, CSN5 (Homo sapiens, UniProt Q92905); experiment: Cell-based Csn5 assay: Cul1 neddylation in HEK-293T cells (immunoblot); parameters: endogenous in cells; host or cells: HEK-293T; conditions: 30 min, increasing concentration
Description: Because cullins undergo a dynamic cycling between neddylated and unneddylated forms by the action of NAE1 and Csn5, respectively, a Csn5 inhibitor will block the removal of Nedd8 from cullin resulting in the accumulation of Nedd8-cullin. HEK-293T cells were treated with compound 001 for 30 min., washed with PBS and lysed in gel loading buffer. Clarified cell lysates (40 μg) were electrophoresed, transferred to nitrocellulose and immunoblotted with α-Cu11 or α-actin sera.

CSN5 [3] = target: T2, CSN5; experiment: Csn5 fluorescence polarization assay: release of Nedd8OG from Cul1-Nedd8OG / SCF^Skp2-Nedd8OG by CSN; assay type: biochemical
[4] = test system: neddylated forms of Cullins 1, 2, and 4A; experiment: Accumulation of neddylated Cullins 1, 2 and 4A in HEK-293T cells (immunoblot); assay type: cell-based, human; conditions: 15 min at 37° C.
Description: Test compounds include Compound 1 (“Test Compound 1”), Compound 101 (“Test Compound 2”), and MLN4924 (“Comparison Compound”; Sulfamic acid, [(1S,2S,4R)-4-[4-[[(1S)-2,3-dihydro-1H-inden-1-yl]amino]-7H-pyrrolo[2,3-d]pyrimidin-7-yl]-2-hydroxycyclopentyl]methyl ester; CAS Reg. No. 905579-51-3). Human HEK-293T cells were treated with 100 μM compound 1, 100 μM compound 101, 3 μM MLN4924 or 1% DMSO for 15 min. at 37° C. At the end of the incubation, cells were harvested and lysed. All cell lysates were fractionated by SDS-PAGE, proteins were transferred to nitrocellulose, and Cu11, Cu12 and Cu14 was detected by immunoblotting with an antibody that recognizes human Cu11, Cu12 or Cu14. Cu11-N8: human Cu11 modified with Nedd8. Cu12-N8: human Cu12 modified with Nedd8. Cu14-N8: human Cu14 modified with Nedd8.

Rpn11 [5] = target: T1, Rpn11; experiment: Ub^G76V-GFP proteasome reporter degradation in HeLa cells (Rpn11 activity in cells); assay type: cell-based; conditions: cycloheximide, 90 min at 37° C., quantitative fluorescence microscopy, read-out: IC50, level of remaining Ub^G76V-GFP
AMSH-LP = target: T3, AMSH-LP (Homo sapiens, UniProt Q96FJ0); experiment: AMSH-LP assay: di-ubiquitin K63 cleavage to mono-ubiquitin (SDS-PAGE, anti-ubiquitin blot); assay type: biochemical; conditions: AMSH-LP 50 nM, di-ubiquitin K63 1 μM, 20 hours at room temperature; read-out: approximate IC50, mono-ubiquitin product formation
T3 sequence (Q96FJ0 1-436): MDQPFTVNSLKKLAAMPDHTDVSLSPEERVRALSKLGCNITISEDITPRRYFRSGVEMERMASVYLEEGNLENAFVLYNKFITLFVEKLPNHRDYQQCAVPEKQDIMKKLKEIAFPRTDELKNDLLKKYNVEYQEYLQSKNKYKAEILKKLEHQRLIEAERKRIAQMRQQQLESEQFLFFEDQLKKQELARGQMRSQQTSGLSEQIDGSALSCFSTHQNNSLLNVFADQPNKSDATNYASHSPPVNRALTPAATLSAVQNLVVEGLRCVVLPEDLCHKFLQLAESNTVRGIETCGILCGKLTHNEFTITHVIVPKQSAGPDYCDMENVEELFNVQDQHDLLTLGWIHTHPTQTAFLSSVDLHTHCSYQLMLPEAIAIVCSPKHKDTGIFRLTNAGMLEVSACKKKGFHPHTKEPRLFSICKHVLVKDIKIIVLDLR
Excerpt: Formation of product is dependant on the presence of AMSH-LP (lane 1).

[6] = 0.5 nM 26S proteasome, 5 nM substrate, 120 min, room temperature (FIG. 4C-E), read-out: IC50, inhibition of Rpn11
[7] = Bioexample 16 table, read-out: RPN11 IC50
[8] = Bioexample 16 table, read-out: CSN5 IC50

| SMILES | pIC50 (Rpn11 [1]; [6]) | pIC50 (Rpn11 [5]) | pIC50 (Rpn11 [1]; [7]) | pIC50 (CSN5 [3]; [8]) | also measured |
| --- | --- | --- | --- | --- | --- |
| Oc1coccc1=S [3-hydroxy-4H-pyran-4-thione, reference compound] | 6.22 |  |  |  |  |
| Sc1cccc2cccnc12 [Compound 1, 8-quinolinethiol] | 5.48 | 6.92 | 5.96 |  | shift of Cu11 between unneddylated and neddylated form (CSN5 [2]): shifts the Cu11 population from the undeddylated to the neddylated form; pIC50 (CSN5 [3]; Cop9 signalsome, 8-point titration 100 μM to 0.05 μM, four-parameter fit (FIG. 11), read-out: IC50 on Csn5): 5.19; pIC50 (CSN5 [3]; purified CSN, fluorescence polarization, dose escalation (FIG. 2B), read-out: IC50, CSN release of Nedd8OG from Cu11-Nedd8OG): 5.42; conversion of Cu11, Cu12 and Cu14 to Nedd8-modified species ([4]; 100 μM): largely modified with Nedd8; IC50 (AMSH-LP): ~1600 nM |
| Cc1ccc2cccc(S)c2n1 [Compound 3, 8-SH-2-Me-quinoline] |  |  | 5.21 |  |  |
| Cc1cnc2c(S)cccc2c1 [Compound 4] |  |  | 5.89 | 5.11 |  |
| Cc1ccnc2c(S)cccc12 [Compound 5] |  |  | 5.60 | 4.65 |  |
| Cc1ccc(S)c2ncccc12 [Compound 6] |  |  | 5.96 | 5.39 |  |
| Cc1cc(S)c2ncccc2c1 [Compound 7] |  |  | 6.10 |  |  |
| CC(C)C[C@@H](C=O)NC(=O)[C@H](CC(C)C)NC(=O)[C@H](CC(C)C)NC(=O)OCc1ccccc1 [MG132, N-(benzyloxycarbonyl)leucinylleucinylleucinal] (Cbz-Leu-Leu-Leu-aldehyde) |  | 6.64 |  |  |  |
| NS(=O)(=O)OC[C@@H]1C[C@@H](n2ccc3c(N[C@H]4CCc5ccccc54)ncnc32)C[C@@H]1O [MLN4924, Sulfamic acid, [(1S,2S,4R)-4-[4-[[(1S)-2,3-dihydro-1H-inden-1-yl]amino]-7H-pyrrolo[2,3-d]pyrimidin-7-yl]-2-hydroxycyclopentyl]methyl ester, reference compound] |  |  |  |  | conversion of Cu11, Cu12 and Cu14 to Nedd8-modified species ([4]; 3 μM): remain in the non-neddylated form |
| c1cnc2c(c1)ccc1cccnc12 [o-phenanthroline, reference compound] | 3.80 | 3.23 |  |  |  |
